# Assays:
# Assay in all cases: KINOMEscan competition binding
# Details in all cases: compound 0.5 µM
# PAK7 (human) = PAK7 (human) (UniProt Q9P286)
# TXK (human) = TXK (human) (UniProt P42681)
# RAF1 (human) = RAF1 (human) (UniProt P04049)
# CDK15 (human) = CDK15 (human) (UniProt Q96Q40)
# MLTK (human) = MLTK (human) (UniProt Q9NYL2)
# MAPK12 (human) = MAPK12 (human) (UniProt P53778)
# NEK11 (human) = NEK11 (human) (UniProt Q8NG66)
# [1] = test system: PIK3CA (human), P42336 [Q546K]
# PRKACB (human) = PRKACB (human) (UniProt P22694)
# CSNK1A1 (human) = CSNK1A1 (human) (UniProt P48729)
# IRAK3 (human) = IRAK3 (human) (UniProt Q9Y616)
# DAPK2 (human) = DAPK2 (human) (UniProt Q9UIK4)
# PDPK1 (human) = PDPK1 (human) (UniProt O15530)
# MAP3K9 (human) = MAP3K9 (human) (UniProt P80192)
# MAP3K15 (human) = MAP3K15 (human) (UniProt Q6ZN16)
# Chain of MAP3K15 (human) (Q6ZN16 whole entry, looked up): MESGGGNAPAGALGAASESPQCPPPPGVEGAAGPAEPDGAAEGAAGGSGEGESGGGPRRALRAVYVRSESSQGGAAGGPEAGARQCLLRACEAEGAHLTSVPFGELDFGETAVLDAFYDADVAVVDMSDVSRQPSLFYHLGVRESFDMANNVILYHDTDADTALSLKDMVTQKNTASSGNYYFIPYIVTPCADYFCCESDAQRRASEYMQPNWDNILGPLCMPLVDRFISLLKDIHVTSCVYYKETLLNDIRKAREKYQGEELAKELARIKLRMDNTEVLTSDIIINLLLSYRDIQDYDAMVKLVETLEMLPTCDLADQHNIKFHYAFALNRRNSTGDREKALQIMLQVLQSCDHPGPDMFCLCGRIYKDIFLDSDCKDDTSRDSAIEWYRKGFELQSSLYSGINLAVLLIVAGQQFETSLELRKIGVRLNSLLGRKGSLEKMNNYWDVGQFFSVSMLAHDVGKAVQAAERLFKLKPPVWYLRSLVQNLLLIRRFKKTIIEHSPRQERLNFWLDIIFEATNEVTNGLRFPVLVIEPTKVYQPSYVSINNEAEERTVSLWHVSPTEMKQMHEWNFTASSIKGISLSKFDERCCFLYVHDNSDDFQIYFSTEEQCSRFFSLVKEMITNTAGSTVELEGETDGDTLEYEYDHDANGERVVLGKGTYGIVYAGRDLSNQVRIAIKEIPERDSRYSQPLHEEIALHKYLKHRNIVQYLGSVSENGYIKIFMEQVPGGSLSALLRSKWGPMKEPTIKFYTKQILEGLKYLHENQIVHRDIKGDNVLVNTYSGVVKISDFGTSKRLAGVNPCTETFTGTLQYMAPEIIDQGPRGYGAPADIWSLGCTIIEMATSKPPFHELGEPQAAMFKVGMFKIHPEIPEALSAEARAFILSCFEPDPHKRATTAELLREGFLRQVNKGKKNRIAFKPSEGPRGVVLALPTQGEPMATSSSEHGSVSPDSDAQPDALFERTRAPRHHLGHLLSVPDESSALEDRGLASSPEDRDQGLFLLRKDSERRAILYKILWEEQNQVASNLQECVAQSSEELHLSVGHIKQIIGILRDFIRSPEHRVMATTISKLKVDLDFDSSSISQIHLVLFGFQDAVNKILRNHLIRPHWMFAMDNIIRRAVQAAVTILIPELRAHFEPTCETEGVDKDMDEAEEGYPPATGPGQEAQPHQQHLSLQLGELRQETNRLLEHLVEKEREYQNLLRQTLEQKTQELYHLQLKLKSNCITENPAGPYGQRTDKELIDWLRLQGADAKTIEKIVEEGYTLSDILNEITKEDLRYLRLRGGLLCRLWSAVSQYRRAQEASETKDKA
# MAPK11 (human) = MAPK11 (human) (UniProt Q15759)
# MTOR (human) = MTOR (human) (UniProt P42345)
# ANKK1 (human) = ANKK1 (human) (UniProt Q8NFD2)
# Chain of ANKK1 (human) (Q8NFD2 whole entry, looked up): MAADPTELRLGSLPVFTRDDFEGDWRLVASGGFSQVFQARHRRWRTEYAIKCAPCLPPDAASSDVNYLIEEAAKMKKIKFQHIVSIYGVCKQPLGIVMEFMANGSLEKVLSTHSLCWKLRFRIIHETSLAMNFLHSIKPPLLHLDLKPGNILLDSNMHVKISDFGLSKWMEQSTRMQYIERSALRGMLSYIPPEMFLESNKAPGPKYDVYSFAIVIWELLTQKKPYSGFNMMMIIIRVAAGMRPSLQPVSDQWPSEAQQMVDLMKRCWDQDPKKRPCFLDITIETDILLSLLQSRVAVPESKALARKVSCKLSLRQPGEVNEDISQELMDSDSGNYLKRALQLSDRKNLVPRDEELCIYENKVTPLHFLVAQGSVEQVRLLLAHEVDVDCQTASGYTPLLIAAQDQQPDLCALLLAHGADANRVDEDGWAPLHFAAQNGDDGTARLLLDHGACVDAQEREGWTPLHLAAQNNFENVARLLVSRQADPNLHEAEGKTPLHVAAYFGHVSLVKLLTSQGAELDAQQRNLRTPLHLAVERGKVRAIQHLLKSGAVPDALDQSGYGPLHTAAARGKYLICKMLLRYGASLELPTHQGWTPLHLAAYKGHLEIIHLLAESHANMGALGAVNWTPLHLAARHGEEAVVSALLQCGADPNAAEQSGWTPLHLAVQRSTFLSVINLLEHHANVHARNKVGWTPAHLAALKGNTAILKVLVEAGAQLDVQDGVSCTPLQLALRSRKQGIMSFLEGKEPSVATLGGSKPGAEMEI
# MAPK4 (human) = MAPK4 (human) (UniProt P31152)
# [2] = test system: ABL1 (human), P00519 [E255K]
# RPS6KA2 KD2 (human) = RPS6KA2 KD2 (human) (UniProt Q15349)
# WEE2 (human) = WEE2 (human) (UniProt P0C1S8)
# STK24 (human) = STK24 (human) (UniProt Q9Y6E0)
# EPHA3 (human) = EPHA3 (human) (UniProt P29320)
# RIPK1 (human) = RIPK1 (human) (UniProt Q13546)
# Chain of RIPK1 (human) (Q13546 whole entry, looked up): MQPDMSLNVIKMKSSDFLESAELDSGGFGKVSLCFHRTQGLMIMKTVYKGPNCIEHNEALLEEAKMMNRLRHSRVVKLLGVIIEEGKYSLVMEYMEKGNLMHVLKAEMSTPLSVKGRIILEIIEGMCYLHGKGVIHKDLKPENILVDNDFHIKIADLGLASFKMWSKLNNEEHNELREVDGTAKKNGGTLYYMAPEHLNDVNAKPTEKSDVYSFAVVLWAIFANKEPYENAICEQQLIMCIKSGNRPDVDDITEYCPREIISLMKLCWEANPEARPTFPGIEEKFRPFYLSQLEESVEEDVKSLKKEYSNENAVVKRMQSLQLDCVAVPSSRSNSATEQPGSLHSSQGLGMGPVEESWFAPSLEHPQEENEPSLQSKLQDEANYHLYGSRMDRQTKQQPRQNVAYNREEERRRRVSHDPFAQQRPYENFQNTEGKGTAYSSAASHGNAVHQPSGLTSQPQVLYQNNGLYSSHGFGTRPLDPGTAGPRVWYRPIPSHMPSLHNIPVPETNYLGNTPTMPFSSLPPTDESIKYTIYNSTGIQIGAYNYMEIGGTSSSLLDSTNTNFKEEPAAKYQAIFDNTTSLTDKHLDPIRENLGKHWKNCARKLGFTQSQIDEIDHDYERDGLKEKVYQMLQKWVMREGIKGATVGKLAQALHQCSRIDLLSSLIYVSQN
# EPHB1 (human) = EPHB1 (human) (UniProt P54762)
# CLK2 (human) = CLK2 (human) (UniProt P49760)
# Chain of CLK2 (human) (P49760 whole entry, looked up): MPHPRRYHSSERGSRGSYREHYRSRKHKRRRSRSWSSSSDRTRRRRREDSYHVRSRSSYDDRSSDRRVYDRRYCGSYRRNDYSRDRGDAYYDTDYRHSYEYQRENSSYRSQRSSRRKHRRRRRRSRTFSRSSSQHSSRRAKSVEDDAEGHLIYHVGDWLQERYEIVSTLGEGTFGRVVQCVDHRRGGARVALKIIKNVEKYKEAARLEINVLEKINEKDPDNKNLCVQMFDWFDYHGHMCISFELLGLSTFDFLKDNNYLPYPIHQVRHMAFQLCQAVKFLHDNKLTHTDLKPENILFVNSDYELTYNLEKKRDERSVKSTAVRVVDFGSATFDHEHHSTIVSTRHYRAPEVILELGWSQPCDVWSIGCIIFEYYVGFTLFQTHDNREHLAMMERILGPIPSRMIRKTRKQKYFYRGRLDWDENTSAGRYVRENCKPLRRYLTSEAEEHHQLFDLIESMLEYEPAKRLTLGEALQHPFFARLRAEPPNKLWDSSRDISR
# ZAP70 (human) = ZAP70 (human) (UniProt P43403)
# NEK7 (human) = NEK7 (human) (UniProt Q8TDX7)
# STK25 (human) = STK25 (human) (UniProt O00506)
# PKN2 (human) = PKN2 (human) (UniProt Q16513)
# DCLK3 (human) = DCLK3 (human) (UniProt Q9C098)
# Chain of DCLK3 (human) (Q9C098 whole entry, looked up): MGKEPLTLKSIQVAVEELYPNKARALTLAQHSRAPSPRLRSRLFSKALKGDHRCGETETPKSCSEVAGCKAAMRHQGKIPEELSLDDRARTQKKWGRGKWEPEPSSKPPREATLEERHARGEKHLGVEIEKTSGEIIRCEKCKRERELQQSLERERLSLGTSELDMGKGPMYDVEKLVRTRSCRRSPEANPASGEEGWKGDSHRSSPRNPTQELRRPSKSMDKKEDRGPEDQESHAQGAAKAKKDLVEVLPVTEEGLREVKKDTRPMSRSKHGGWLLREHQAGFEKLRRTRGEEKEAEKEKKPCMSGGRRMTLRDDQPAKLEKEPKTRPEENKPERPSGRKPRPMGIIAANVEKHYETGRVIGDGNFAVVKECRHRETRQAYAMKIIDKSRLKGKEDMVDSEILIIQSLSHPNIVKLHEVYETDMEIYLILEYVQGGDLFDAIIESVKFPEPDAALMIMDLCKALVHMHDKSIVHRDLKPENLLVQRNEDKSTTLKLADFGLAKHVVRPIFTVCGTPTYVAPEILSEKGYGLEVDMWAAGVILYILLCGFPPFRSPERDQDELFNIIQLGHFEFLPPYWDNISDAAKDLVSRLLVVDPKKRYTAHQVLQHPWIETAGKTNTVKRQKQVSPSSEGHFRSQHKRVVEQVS
# SRC (human) = SRC (human) (UniProt P12931)
# MKNK2 (human) = MKNK2 (human) (UniProt Q9HBH9)
# [3] = test system: KIT (human), P10721 [L576P]
# CDC42BPB (human) = CDC42BPB (human) (UniProt Q9Y5S2)
# LYN (human) = LYN (human) (UniProt P07948)
# SIK2 (human) = SIK2 (human) (UniProt Q9H0K1)
# DAPK1 (human) = DAPK1 (human) (UniProt P53355)
# PTK6 (human) = PTK6 (human) (UniProt Q13882)
# Chain of PTK6 (human) (Q13882 whole entry, looked up): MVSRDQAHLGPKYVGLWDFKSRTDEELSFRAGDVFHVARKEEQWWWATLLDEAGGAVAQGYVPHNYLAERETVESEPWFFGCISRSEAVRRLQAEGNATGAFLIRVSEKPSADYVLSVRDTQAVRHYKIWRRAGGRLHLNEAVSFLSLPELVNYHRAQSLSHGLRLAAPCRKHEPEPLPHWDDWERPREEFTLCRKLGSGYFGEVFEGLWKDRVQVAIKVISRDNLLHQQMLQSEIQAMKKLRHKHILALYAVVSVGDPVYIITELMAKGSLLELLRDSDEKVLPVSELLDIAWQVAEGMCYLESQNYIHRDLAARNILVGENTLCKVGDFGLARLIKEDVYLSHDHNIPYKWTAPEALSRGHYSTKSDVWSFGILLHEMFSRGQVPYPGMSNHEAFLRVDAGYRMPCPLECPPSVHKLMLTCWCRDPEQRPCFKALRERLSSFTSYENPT
# EPHB3 (human) = EPHB3 (human) (UniProt P54753)
# CDK18 (human) = CDK18 (human) (UniProt Q07002)
# Chain of CDK18 (human) (Q07002 whole entry, looked up): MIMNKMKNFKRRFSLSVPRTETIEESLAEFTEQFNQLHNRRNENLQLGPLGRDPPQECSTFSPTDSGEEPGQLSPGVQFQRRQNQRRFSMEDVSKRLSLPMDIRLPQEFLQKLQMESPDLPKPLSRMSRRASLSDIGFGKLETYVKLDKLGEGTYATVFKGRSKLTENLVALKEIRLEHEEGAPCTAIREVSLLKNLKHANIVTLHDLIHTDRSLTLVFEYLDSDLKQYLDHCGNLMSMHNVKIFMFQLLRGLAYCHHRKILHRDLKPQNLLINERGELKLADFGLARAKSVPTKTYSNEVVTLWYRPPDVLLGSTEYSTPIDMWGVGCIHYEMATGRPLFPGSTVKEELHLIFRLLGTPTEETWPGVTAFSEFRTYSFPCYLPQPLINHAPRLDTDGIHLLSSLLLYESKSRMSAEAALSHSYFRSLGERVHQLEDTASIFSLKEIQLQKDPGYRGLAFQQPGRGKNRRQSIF
structure (smiles),measurement,setting,value
Cn1c2ccccc2c2c3c(c4c5ccccc5n(CCC#N)c4c21)CNC3=O,"kinase still bound, per cent of control",PAK7 (human),3.4%
same,"kinase still bound, per cent of control",TXK (human),11%
same,"kinase still bound, per cent of control",RAF1 (human),100%
same,"kinase still bound, per cent of control",CDK15 (human),100%
same,"kinase still bound, per cent of control",MLTK (human),96%
same,"kinase still bound, per cent of control",MAPK12 (human),68%
same,"kinase still bound, per cent of control",NEK11 (human),100%
same,"kinase still bound, per cent of control",[1],100%
same,"kinase still bound, per cent of control",PRKACB (human),67%
same,"kinase still bound, per cent of control",CSNK1A1 (human),100%
same,"kinase still bound, per cent of control",IRAK3 (human),12%
same,"kinase still bound, per cent of control",DAPK2 (human),61%
same,"kinase still bound, per cent of control",PDPK1 (human),41%
same,"kinase still bound, per cent of control",MAP3K9 (human),0.65%
same,"kinase still bound, per cent of control",MAP3K15 (human),97%
same,"kinase still bound, per cent of control",MAPK11 (human),97%
same,"kinase still bound, per cent of control",MTOR (human),52%
same,"kinase still bound, per cent of control",ANKK1 (human),70%
same,"kinase still bound, per cent of control",MAPK4 (human),100%
same,"kinase still bound, per cent of control",[2],75%
same,"kinase still bound, per cent of control",RPS6KA2 KD2 (human),100%
same,"kinase still bound, per cent of control",WEE2 (human),100%
same,"kinase still bound, per cent of control",STK24 (human),92%
same,"kinase still bound, per cent of control",EPHA3 (human),53%
same,"kinase still bound, per cent of control",RIPK1 (human),100%
same,"kinase still bound, per cent of control",EPHB1 (human),97%
same,"kinase still bound, per cent of control",CLK2 (human),38%
same,"kinase still bound, per cent of control",ZAP70 (human),35%
same,"kinase still bound, per cent of control",NEK7 (human),100%
same,"kinase still bound, per cent of control",STK25 (human),100%
same,"kinase still bound, per cent of control",PKN2 (human),12%
same,"kinase still bound, per cent of control",DCLK3 (human),100%
same,"kinase still bound, per cent of control",SRC (human),100%
same,"kinase still bound, per cent of control",MKNK2 (human),11%
same,"kinase still bound, per cent of control",[3],46%
same,"kinase still bound, per cent of control",CDC42BPB (human),100%
same,"kinase still bound, per cent of control",LYN (human),100%
same,"kinase still bound, per cent of control",SIK2 (human),36%
same,"kinase still bound, per cent of control",DAPK1 (human),78%
same,"kinase still bound, per cent of control",PTK6 (human),77%
same,"kinase still bound, per cent of control",EPHB3 (human),85%
same,"kinase still bound, per cent of control",CDK18 (human),91%

# Source: the kinase profiling compilation of Christmann-Franck et al. (2016)
